One block for each molecule: values may come before it. Starred links: 1 amine or outer side, 2 acyl side, 3 side chain; linkers in the order of their positions; H or OH if unused. Non-standard residues stand in square brackets, D forms with d. Residues, ends and D or L forms follow the SMILES beside them. Groups on a side chain read outwards from the residue. *: point of attachment. Isobutyryl(2-imidazol-4-yl) = CC(C)(C(=O)*)c1c[nH]cn1; γGlu = O=C(O)[C@H](CCC(=O)[*:2])N[*:1]; Palmitoyl = CCCCCCCCCCCCCCCC(=O)*; Aib = CC(C)(N)C(=O)O
Experiments:
[1] = target: T1, GLP-1 receptor (Homo sapiens, UniProt P43220); assay: cAMP induction, firefly luciferase reporter assay, GLP-1 receptor; assay type: cell-based; settings: for Activity at GLP-1 Receptor % Relative Activity: compared to native GLP-1; for EC50: Activity at GLP-1 Receptor EC50 [nM]
T1 construct: expressed in transfected cells; host or cells: HEK293
T1 sequence (P43220 24-463): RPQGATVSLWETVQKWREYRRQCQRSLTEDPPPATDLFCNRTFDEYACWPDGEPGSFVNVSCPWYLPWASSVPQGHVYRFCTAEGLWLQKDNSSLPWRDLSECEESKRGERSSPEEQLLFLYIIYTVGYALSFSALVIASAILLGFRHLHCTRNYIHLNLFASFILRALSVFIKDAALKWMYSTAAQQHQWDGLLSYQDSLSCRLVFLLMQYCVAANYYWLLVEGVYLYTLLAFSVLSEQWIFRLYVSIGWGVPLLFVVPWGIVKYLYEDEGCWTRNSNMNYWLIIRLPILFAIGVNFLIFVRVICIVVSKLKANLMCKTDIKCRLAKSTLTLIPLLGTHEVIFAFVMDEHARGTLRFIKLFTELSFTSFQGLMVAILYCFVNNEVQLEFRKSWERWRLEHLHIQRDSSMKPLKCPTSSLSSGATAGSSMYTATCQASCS
Method: (§1) The ability of each peptide to induce cAMP was measured in a firefly luciferase-based reporter assay.
(§2) At the end of the incubation, 100 μL of LucLite luminescence substrate reagent (Perkin Elmer, Wellesley, Mass.) were added to each well. The plate was shaken briefly, incubated 10 min in the dark and light output was measured on MicroBeta-1450 liquid scintillation counter (Perkin-Elmer, Wellesley, Mass.).

[2] = target: T2, glucagon receptor (Homo sapiens, UniProt P47871); assay: cAMP induction, firefly luciferase reporter assay, glucagon receptor; assay type: cell-based; settings: for Activity at Glucagon Receptor % Relative Activity: compared to native glucagon
T2 construct: expressed in transfected cells; host or cells: HEK293
T2 sequence (P47871 26-477): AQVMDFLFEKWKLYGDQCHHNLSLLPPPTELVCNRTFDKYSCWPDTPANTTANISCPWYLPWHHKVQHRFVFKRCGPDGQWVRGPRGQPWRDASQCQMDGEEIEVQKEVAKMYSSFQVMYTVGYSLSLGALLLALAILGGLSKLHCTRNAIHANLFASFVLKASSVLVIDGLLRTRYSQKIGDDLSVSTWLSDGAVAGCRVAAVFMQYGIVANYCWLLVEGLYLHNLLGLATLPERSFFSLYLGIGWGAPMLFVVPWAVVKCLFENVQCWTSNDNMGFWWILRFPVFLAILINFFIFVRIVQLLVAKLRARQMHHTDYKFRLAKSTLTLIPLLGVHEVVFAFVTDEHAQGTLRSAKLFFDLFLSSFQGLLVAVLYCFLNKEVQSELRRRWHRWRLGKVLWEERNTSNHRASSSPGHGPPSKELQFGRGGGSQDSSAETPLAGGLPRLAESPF
Method: as §1, §2

Compound: CCCCCCCCCCCCCCCC(=O)N[C@@H](CCC(=O)NCCCC[C@H](NC(=O)[C@H](CC(=O)O)NC(=O)[C@H](CO)NC(=O)[C@@H](NC(=O)[C@H](Cc1ccccc1)NC(=O)[C@@H](NC(=O)CNC(=O)[C@H](CCC(N)=O)NC(=O)[C@H](CO)NC(=O)C(C)(C)c1c[nH]cn1)[C@@H](C)O)[C@@H](C)O)C(=O)N[C@@H](CO)C(=O)N[C@@H](CCCCN)C(=O)N[C@@H](Cc1ccc(O)cc1)C(=O)N[C@@H](CC(C)C)C(=O)N[C@@H](CC(=O)O)C(=O)N[C@@H](CCC(=O)O)C(=O)N[C@@H](CCC(N)=O)C(=O)N[C@@H](C)C(=O)N[C@@H](C)C(=O)N[C@@H](CCCCN)C(=O)N[C@@H](CCC(=O)O)C(=O)N[C@@H](Cc1ccccc1)C(=O)N[C@H](C(=O)N[C@@H](CS)C(=O)N[C@@H](Cc1c[nH]c2ccccc12)C(=O)N[C@@H](CC(C)C)C(=O)N[C@@H](CC(C)C)C(=O)N[C@@H](CC(=O)O)C(=O)N[C@H](C(N)=O)[C@@H](C)O)[C@@H](C)CC)C(=O)O [compound 54] ({Isobutyryl(2-imidazol-4-yl)}-SQGTFTSDK([γGlu-Palmitoyl])SKYLDEQAAKEFICWLLDT-NH2)
Activity at GLP-1 Receptor % Relative Activity ([1]; Table 5): 42%
EC50 ([2]; Activity at Glucagon Receptor EC50 [nM], Table 5): 0.107 nM
Activity at Glucagon Receptor % Relative Activity ([2]; Table 5): 35%

Compound: CCCCCCCCCCCCCCCC(=O)N[C@@H](CCC(=O)NCCCC[C@H](NC(=O)[C@H](CC(=O)O)NC(=O)[C@H](CO)NC(=O)[C@@H](NC(=O)[C@H](Cc1ccccc1)NC(=O)[C@@H](NC(=O)CNC(=O)[C@H](CCC(N)=O)NC(=O)[C@@H](CO)NC(=O)[C@@H](N)Cc1c[nH]cn1)[C@@H](C)O)[C@@H](C)O)C(=O)N[C@@H](CO)C(=O)N[C@@H](CCCCN)C(=O)N[C@@H](Cc1ccc(O)cc1)C(=O)N[C@@H](CC(C)C)C(=O)N[C@@H](CC(=O)O)C(=O)N[C@@H](CCC(=O)O)C(=O)N[C@@H](CCC(N)=O)C(=O)N[C@@H](C)C(=O)N[C@@H](C)C(=O)N[C@@H](CCCCN)C(=O)N[C@@H](CCC(=O)O)C(=O)N[C@@H](Cc1ccccc1)C(=O)N[C@H](C(=O)N[C@@H](CS)C(=O)N[C@@H](Cc1c[nH]c2ccccc12)C(=O)N[C@@H](CC(C)C)C(=O)N[C@@H](CC(C)C)C(=O)N[C@@H](CC(=O)O)C(=O)N[C@H](C(=O)NCC(=O)O)[C@@H](C)O)[C@@H](C)CC)C(=O)O [compound 55]
Activity at GLP-1 Receptor % Relative Activity ([1]; Table 5): 16%
Activity at Glucagon Receptor % Relative Activity ([2]; Table 5): 7%

Compound: CCCCCCCCCCCCCCCC(=O)N[C@@H](CCC(=O)NCCCC[C@H](NC(=O)[C@H](CC(=O)O)NC(=O)[C@H](CO)NC(=O)[C@@H](NC(=O)[C@H](Cc1ccccc1)NC(=O)[C@@H](NC(=O)CNC(=O)[C@H](CCC(N)=O)NC(=O)[C@@H](CO)NC(=O)[C@@H](N)Cc1c[nH]cn1)[C@@H](C)O)[C@@H](C)O)C(=O)N[C@@H](CO)C(=O)N[C@@H](CCCCN)C(=O)N[C@@H](Cc1ccc(O)cc1)C(=O)N[C@@H](CC(C)C)C(=O)N[C@@H](CC(=O)O)C(=O)N[C@@H](CCC(=O)O)C(=O)N[C@@H](CCC(N)=O)C(=O)N[C@@H](C)C(=O)N[C@@H](C)C(=O)N[C@@H](CCCCN)C(=O)N[C@@H](CCC(=O)O)C(=O)N[C@@H](Cc1ccccc1)C(=O)N[C@H](C(=O)N[C@@H](CS)C(=O)N[C@@H](Cc1c[nH]c2ccccc12)C(=O)N[C@@H](CC(C)C)C(=O)N[C@@H](CC(C)C)C(=O)N[C@@H](CC(=O)O)C(=O)N[C@H](C(=O)NCC(=O)NCC(=O)O)[C@@H](C)O)[C@@H](C)CC)C(=O)O [compound 56]
EC50 ([1]; Table 5): 0.068 nM
Activity at GLP-1 Receptor % Relative Activity ([1]; Table 5): 125%
Activity at Glucagon Receptor % Relative Activity ([2]; Table 5): 272%

Compound: CC(C)C[C@H](NC(=O)[C@H](CC(C)C)NC(=O)[C@H](Cc1c[nH]c2ccccc12)NC(=O)[C@H](CS)NC(=O)[C@@H](NC(=O)[C@H](Cc1ccccc1)NC(=O)[C@H](CCC(=O)O)NC(=O)[C@H](CCCCN)NC(=O)[C@H](C)NC(=O)[C@H](CCCNC(=N)N)NC(=O)[C@H](CCCCN)NC(=O)C(C)(C)NC(=O)[C@H](CC(=O)O)NC(=O)[C@H](CC(C)C)NC(=O)[C@H](Cc1ccc(O)cc1)NC(=O)[C@H](CCCCN)NC(=O)[C@H](CO)NC(=O)[C@H](Cc1ccc(O)cc1)NC(=O)[C@H](CC(=O)O)NC(=O)[C@H](CO)NC(=O)[C@@H](NC(=O)[C@H](Cc1ccccc1)NC(=O)[C@@H](NC(=O)CNC(=O)[C@H](CCC(N)=O)NC(=O)[C@@H](CO)NC(=O)[C@@H](N)Cc1c[nH]cn1)[C@@H](C)O)[C@@H](C)O)C(C)C)C(=O)N[C@@H](CC(=O)O)C(=O)NCC(=O)NCC(=O)N1CCC[C@H]1C(=O)N[C@@H](CO)C(=O)N[C@@H](CO)C(=O)NCC(=O)N[C@@H](C)C(=O)N1CCC[C@H]1C(=O)N1CCC[C@H]1C(=O)N1CCC[C@H]1C(=O)N[C@@H](CO)C(N)=O [compound 60] (H-H[dS]QGTFTSDYSKYLD[Aib]KRAKEFVCWLLDGGPSSGAPPPS-NH2; N-terminus assumed)
Activity at GLP-1 Receptor % Relative Activity ([1]; Table 2B): 19%
EC50 ([2]; Activity at Glucagon Receptor EC50 (nM), Table 2B): 0.006 nM
Activity at Glucagon Receptor % Relative Activity ([2]; Table 2B): 257%

Compound: CC(C)C[C@H](NC(=O)[C@H](CC(C)C)NC(=O)[C@H](Cc1c[nH]c2ccccc12)NC(=O)[C@H](CS)NC(=O)[C@@H](NC(=O)[C@H](Cc1ccccc1)NC(=O)[C@H](CCC(=O)O)NC(=O)[C@H](CCCCN)NC(=O)[C@H](C)NC(=O)[C@H](CCCNC(=N)N)NC(=O)[C@H](CCCCN)NC(=O)[C@H](CCC(=O)O)NC(=O)[C@H](CC(=O)O)NC(=O)[C@H](CC(C)C)NC(=O)[C@H](Cc1ccc(O)cc1)NC(=O)[C@H](CCCCN)NC(=O)[C@H](CO)NC(=O)[C@H](Cc1ccc(O)cc1)NC(=O)[C@H](CC(=O)O)NC(=O)[C@H](CO)NC(=O)[C@@H](NC(=O)[C@H](Cc1ccccc1)NC(=O)[C@@H](NC(=O)CNC(=O)[C@H](CCC(N)=O)NC(=O)[C@@H](CO)NC(=O)[C@@H](N)Cc1c[nH]cn1)[C@@H](C)O)[C@@H](C)O)C(C)C)C(=O)N[C@@H](CC(=O)O)C(=O)NCC(=O)NCC(=O)N1CCC[C@H]1C(=O)N[C@@H](CO)C(=O)N[C@@H](CO)C(=O)NCC(=O)N[C@@H](C)C(=O)N1CCC[C@H]1C(=O)N1CCC[C@H]1C(=O)N1CCC[C@H]1C(=O)N[C@@H](CO)C(N)=O [compound 61] (H-H[dS]QGTFTSDYSKYLDEKRAKEFVCWLLDGGPSSGAPPPS-NH2; N-terminus assumed)
Activity at GLP-1 Receptor % Relative Activity ([1]; Table 2B): 39%
Activity at Glucagon Receptor % Relative Activity ([2]; Table 2B): 88%

Continued, values first:

Activity at GLP-1 Receptor % Relative Activity ([1]; Table 5): 708%
Activity at Glucagon Receptor % Relative Activity ([2]; Table 5): 411%
Compound: CCCCCCCCCCCCCCCC(=O)N[C@@H](CCC(=O)NCCCC[C@H](NC(=O)[C@H](CC(=O)O)NC(=O)[C@H](CO)NC(=O)[C@@H](NC(=O)[C@H](Cc1ccccc1)NC(=O)[C@@H](NC(=O)CNC(=O)[C@H](CCC(N)=O)NC(=O)[C@@H](CO)NC(=O)[C@@H](N)Cc1c[nH]cn1)[C@@H](C)O)[C@@H](C)O)C(=O)N[C@@H](CO)C(=O)N[C@@H](CCCCN)C(=O)N[C@@H](Cc1ccc(O)cc1)C(=O)N[C@@H](CC(C)C)C(=O)N[C@@H](CC(=O)O)C(=O)N[C@@H](CCC(=O)O)C(=O)N[C@@H](CCC(N)=O)C(=O)N[C@@H](C)C(=O)N[C@@H](C)C(=O)N[C@@H](CCCCN)C(=O)N[C@@H](CCC(=O)O)C(=O)N[C@@H](Cc1ccccc1)C(=O)N[C@H](C(=O)N[C@@H](CS)C(=O)N[C@@H](Cc1c[nH]c2ccccc12)C(=O)N[C@@H](CC(C)C)C(=O)N[C@@H](CC(C)C)C(=O)N[C@@H](CC(=O)O)C(=O)N[C@H](C(N)=O)[C@@H](C)O)[C@@H](C)CC)C(=O)O [compound 53]

EC50 ([1]; Table 6): 0.068 nM
Activity at GLP-1 Receptor % Relative Activity ([1]; Table 6): 125%
Activity at Glucagon Receptor % Relative Activity ([2]; Table 6): 80%
Compound: CCCCCCCCCCCCCCCC(=O)N[C@@H](CCC(=O)NCCCC[C@H](NC(=O)[C@H](CC(=O)O)NC(=O)[C@H](CO)NC(=O)[C@@H](NC(=O)[C@H](Cc1ccccc1)NC(=O)[C@@H](NC(=O)CNC(=O)[C@H](CCC(N)=O)NC(=O)C(C)(C)NC(=O)[C@@H](N)Cc1c[nH]cn1)[C@@H](C)O)[C@@H](C)O)C(=O)N[C@@H](CO)C(=O)N[C@@H](CCCCN)C(=O)N[C@@H](Cc1ccc(O)cc1)C(=O)N[C@@H](CC(C)C)C(=O)N[C@@H](CC(=O)O)C(=O)N[C@@H](CCC(=O)O)C(=O)N[C@@H](CCCNC(=N)N)C(=O)N[C@@H](C)C(=O)N[C@@H](C)C(=O)N[C@@H](CCC(N)=O)C(=O)N[C@@H](CC(=O)O)C(=O)N[C@@H](Cc1ccccc1)C(=O)N[C@H](C(=O)N[C@@H](CS)C(=O)N[C@@H](Cc1c[nH]c2ccccc12)C(=O)N[C@@H](CC(C)C)C(=O)N[C@@H](CC(C)C)C(=O)N[C@@H](CC(=O)O)C(=O)N[C@H](C(N)=O)[C@@H](C)O)C(C)C)C(=O)O [compound 58]

EC50 ([1]; Table 6): 0.019 nM
Activity at GLP-1 Receptor % Relative Activity ([1]; Table 6): 484%
Activity at Glucagon Receptor % Relative Activity ([2]; Table 6): 490%
Compound: CCCCCCCCCCCCCCCC(=O)N[C@@H](CCC(=O)NCCCC[C@H](NC(=O)[C@H](CC(=O)O)NC(=O)[C@H](CO)NC(=O)[C@@H](NC(=O)[C@H](Cc1ccccc1)NC(=O)[C@@H](NC(=O)CNC(=O)[C@H](CCC(N)=O)NC(=O)[C@@H](C)NC(=O)[C@@H](N)Cc1c[nH]cn1)[C@@H](C)O)[C@@H](C)O)C(=O)N[C@@H](CO)C(=O)N[C@@H](CCCCN)C(=O)N[C@@H](Cc1ccc(O)cc1)C(=O)N[C@@H](CC(C)C)C(=O)N[C@@H](CC(=O)O)C(=O)N[C@@H](CCC(=O)O)C(=O)N[C@@H](CCCNC(=N)N)C(=O)N[C@@H](C)C(=O)N[C@@H](C)C(=O)N[C@@H](CCC(N)=O)C(=O)N[C@@H](CC(=O)O)C(=O)N[C@@H](Cc1ccccc1)C(=O)N[C@H](C(=O)N[C@@H](CS)C(=O)N[C@@H](Cc1c[nH]c2ccccc12)C(=O)N[C@@H](CC(C)C)C(=O)N[C@@H](CC(C)C)C(=O)N[C@@H](CC(=O)O)C(=O)N[C@H](C(N)=O)[C@@H](C)O)C(C)C)C(=O)O [compound 59]
